Key:
[1] = biological target: T1, Discoidin domain-containing receptor 2 (Homo sapiens, UniProt Q16832); experiment: LanthaScreen Eu Kinase Activity Assay; details: pH 7.5; 25 °C
T1 sequence (Q16832 whole entry): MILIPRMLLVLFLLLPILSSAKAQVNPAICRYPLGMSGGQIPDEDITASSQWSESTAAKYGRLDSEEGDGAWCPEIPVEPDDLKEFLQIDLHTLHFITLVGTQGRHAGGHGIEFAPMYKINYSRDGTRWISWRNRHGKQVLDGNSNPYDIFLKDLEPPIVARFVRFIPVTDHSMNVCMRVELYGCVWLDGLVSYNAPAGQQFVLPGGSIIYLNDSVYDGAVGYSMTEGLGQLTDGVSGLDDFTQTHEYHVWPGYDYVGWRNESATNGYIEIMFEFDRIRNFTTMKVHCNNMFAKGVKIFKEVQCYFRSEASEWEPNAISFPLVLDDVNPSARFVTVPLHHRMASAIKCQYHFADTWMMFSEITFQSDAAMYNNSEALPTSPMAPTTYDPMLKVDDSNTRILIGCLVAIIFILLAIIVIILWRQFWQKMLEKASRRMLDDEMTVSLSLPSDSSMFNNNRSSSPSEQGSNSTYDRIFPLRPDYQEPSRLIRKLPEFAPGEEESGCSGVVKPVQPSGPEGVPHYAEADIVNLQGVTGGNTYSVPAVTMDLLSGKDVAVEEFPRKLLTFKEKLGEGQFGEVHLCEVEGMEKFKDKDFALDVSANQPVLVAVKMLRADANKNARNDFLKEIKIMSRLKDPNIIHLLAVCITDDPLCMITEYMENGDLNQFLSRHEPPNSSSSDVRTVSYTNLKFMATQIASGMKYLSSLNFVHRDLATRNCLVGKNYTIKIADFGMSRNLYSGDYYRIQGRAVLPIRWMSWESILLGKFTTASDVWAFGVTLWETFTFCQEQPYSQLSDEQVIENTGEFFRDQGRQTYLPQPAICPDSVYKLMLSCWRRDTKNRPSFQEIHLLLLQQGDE
Experimental: (§1) The effects of compounds on the kinases DDR1 and DDR2 were assessed by using a LanthaScreen Eu kinase activity assay technology (Invitrogen, Carlsbad, CA, USA). […] Reaction buffer for the kinase reaction consists of 50 mm HEPES pH 7.5, 0.01% BRIJ-35, 10 mm MgCl2, and 1 mm EGTA. The concentration of fluorescein-polyGAT substrate (Invitrogen) in the assay was […] reactions were initiated with the addition of […] in the presence of serial dilutions of compounds. The reactions were allowed to proceed for 1 hour at room temperature before a 10 μL preparation of EDTA (20 mm) and Eu-labeled antibody (4 nm) in TR-FRET dilution buffer was added. The final concentration of antibody in the assay well was 2 nm, and the final concentration of EDTA was 10 mm.

[2] = biological target: Epithelial discoidin domain-containing receptor 1 (Homo sapiens, UniProt Q08345); experiment: LanthaScreen Eu Kinase Activity Assay; details: pH 7.5; 25 °C
Chain of Epithelial discoidin domain-containing receptor 1 (Q08345 whole entry, the tested form may be a part): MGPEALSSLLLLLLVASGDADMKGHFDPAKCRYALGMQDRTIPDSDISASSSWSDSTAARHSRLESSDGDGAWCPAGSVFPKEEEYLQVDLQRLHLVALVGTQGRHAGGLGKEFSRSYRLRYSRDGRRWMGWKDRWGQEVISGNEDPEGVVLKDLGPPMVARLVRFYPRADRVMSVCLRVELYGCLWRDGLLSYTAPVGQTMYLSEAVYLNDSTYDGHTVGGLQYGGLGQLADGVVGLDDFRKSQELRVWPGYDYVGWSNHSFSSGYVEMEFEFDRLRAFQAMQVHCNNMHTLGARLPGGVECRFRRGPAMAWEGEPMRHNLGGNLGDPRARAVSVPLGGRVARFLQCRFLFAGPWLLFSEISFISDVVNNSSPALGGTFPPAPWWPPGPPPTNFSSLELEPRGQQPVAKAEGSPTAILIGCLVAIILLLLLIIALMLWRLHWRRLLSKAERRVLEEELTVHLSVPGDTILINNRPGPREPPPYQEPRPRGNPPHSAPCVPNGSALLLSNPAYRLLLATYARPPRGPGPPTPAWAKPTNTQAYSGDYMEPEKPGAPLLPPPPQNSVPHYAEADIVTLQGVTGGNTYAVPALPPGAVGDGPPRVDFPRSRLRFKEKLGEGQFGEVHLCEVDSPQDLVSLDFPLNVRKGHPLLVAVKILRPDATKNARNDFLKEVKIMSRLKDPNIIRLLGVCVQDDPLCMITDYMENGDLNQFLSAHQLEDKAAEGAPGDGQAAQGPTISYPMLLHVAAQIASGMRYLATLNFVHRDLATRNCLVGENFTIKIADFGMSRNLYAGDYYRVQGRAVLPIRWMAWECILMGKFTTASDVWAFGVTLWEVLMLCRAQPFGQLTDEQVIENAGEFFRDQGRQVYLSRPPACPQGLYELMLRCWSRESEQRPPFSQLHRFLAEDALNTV
Experimental: as §1

## C=CC(=O)N1CCN(c2cc(Nc3ncc(C(=O)Nc4c(C)cccc4Cl)s3)nc(C)n2)CC1 [2-((6-(4-Acryloylpiperazin-1-yl)-2-methylpyrimidin-4-yl)amino)-N-(2-chloro-6-methylphenyl)-thiazole-5-carboxamide (3l)]
[1]
  IC50: 6.29 nM
[2]
  IC50: 4.54 nM

## C=CC(=O)N1CCC(Nc2cc(Nc3ncc(C(=O)Nc4c(C)cccc4Cl)s3)nc(C)n2)C1 (centres undefined) [2-((6-((1-Acryloylpyrrolidin-3-yl)amino)-2-methylpyrimidin-4-yl)amino)-N-(2-chloro-6-methylphenyl)thiazole-5-carboxamide (5k)]
[1]
  IC50: 34.4 nM
[2]
  IC50: 7.31 nM

## Cc1nc(Nc2ncc(C(=O)Nc3c(C)cccc3Cl)s2)cc(N2CCN(C(=O)OCCN(C)C)CC2)n1 [2-(Dimethylamino)ethyl 4-(6-((5-((2-chloro-6-methylphenyl)carbamoyl)thiazol-2-yl)amino)-2-methylpyrimidin-4-yl)-piperazine-1-carboxylate (3k)]
[1]
  IC50: 7.89 nM
[2]
  IC50: 2.56 nM

## Cc1nc(Nc2ncc(C(=O)Nc3c(C)cccc3Cl)s2)cc(N2CCN(C(=O)OCCCl)CC2)n1 [2-Chloroethyl 4-(6-((5-((2-chloro-6-methylphenyl)carbamoyl)thiazol-2-yl)amino)-2-methylpyrimidin-4-yl)-piperazine-1-carboxylate (3i)]
[1]
  IC50: 9 nM
[2]
  IC50: 4.21 nM

## Cc1nc(Nc2ncc(C(=O)Nc3c(C)cccc3Cl)s2)cc(N2CCN(C(=O)OCCN3CCOCC3)CC2)n1 [2-Morpholinoethyl 4-(6-((5-((2-chloro-6-methylphenyl)carbamoyl)thiazol-2-yl)amino)-2-methylpyrimidin-4-yl)-piperazine-1-carboxylate (3j)]
[1]
  IC50: 7.04 nM
[2]
  IC50: 2.26 nM

## C/C=C/C(=O)N1CCN(c2cc(Nc3ncc(C(=O)Nc4c(C)cccc4Cl)s3)nc(C)n2)CC1 [(E)-2-((6-(4-(but-2-enoyl)piperazin-1-yl)-2-methylpyrimidin-4-yl)amino)-N-(2-chloro-6-methylphenyl)thiazole-5-carboxamide (3m)]
[1]
  IC50: 8.34 nM
[2]
  IC50: 4.25 nM

## C=CCOC(=O)N1CCC(c2cc(Nc3ncc(C(=O)Nc4c(C)cccc4Cl)s3)nc(C)n2)C1 (centres undefined) [Allyl 3-(6-((5-((2-chloro-6-methylphenyl)carbamoyl)thiazol-2-yl)amino)-2-methylpyrimidin-4-yl)pyrrolidine-1-carboxylate (5d)]
[1]
  IC50: 17 nM
[2]
  IC50: 13.3 nM

## C=CCOC(=O)N1CCN(c2cc(Nc3ncc(C(=O)Nc4c(C)cccc4Cl)s3)nc(C)n2)CC1 [Allyl 4-(6-((5-((2-chloro-6-methylphenyl)carbamoyl)thiazol-2-yl)amino)-2-methylpyrimidin-4-yl)-piperazine-1-carboxylate (3d)]
[1]
  IC50: 21.6 nM
[2]
  IC50: 6.69 nM

## Cc1nc(Nc2ncc(C(=O)Nc3c(C)cccc3Cl)s2)cc(C2CCN(C(=O)OCc3ccccc3)C2)n1 (centres undefined) [Benzyl 3-(6-((5-((2-chloro-6-methylphenyl)carbamoyl)thiazol-2-yl)amino)-2-methylpyrimidin-4-yl)pyrrolidine-1-carboxylate (5h)]
[1]
  IC50: 285 nM
[2]
  IC50: 22 nM

## Cc1nc(Nc2ncc(C(=O)Nc3c(C)cccc3Cl)s2)cc(N2CCN(C(=O)OCc3ccccc3)CC2)n1 [Benzyl 4-(6-((5-((2-chloro-6-methylphenyl)carbamoyl)thiazol-2-yl)amino)-2-methylpyrimidin-4-yl)-piperazine-1-carboxylate (3h)]
[1]
  IC50: 133 nM
[2]
  IC50: 22.6 nM

## CCCCOC(=O)N1CCC(c2cc(Nc3ncc(C(=O)Nc4c(C)cccc4Cl)s3)nc(C)n2)C1 (centres undefined) [Butyl 3-(6-((5-((2-chloro-6-methylphenyl)carbamoyl)thiazol-2-yl)amino)-2-methylpyrimidin-4-yl)pyrrolidine-1-carboxylate (5e)]
[1]
  IC50: 123 nM
[2]
  IC50: 15.3 nM

## CCCCOC(=O)N1CCN(c2cc(Nc3ncc(C(=O)Nc4c(C)cccc4Cl)s3)nc(C)n2)CC1 [Butyl 4-(6-((5-((2-chloro-6-methylphenyl)carbamoyl)thiazol-2-yl)amino)-2-methylpyrimidin-4-yl)-piperazine-1-carboxylate (3e)]
[1]
  IC50: 6.16 nM
[2]
  IC50: 3.2 nM

## CCOC(=O)N1CCC(c2cc(Nc3ncc(C(=O)Nc4c(C)cccc4Cl)s3)nc(C)n2)C1 (centres undefined) [Ethyl 3-(6-((5-((2-chloro-6-methylphenyl)carbamoyl)thiazol-2-yl)amino)-2-methylpyrimidin-4-yl)pyrrolidine-1-carboxylate (5b)]
[1]
  IC50: 22.4 nM
[2]
  IC50: 9.6 nM

## CCOC(=O)N1CCN(c2cc(Nc3ncc(C(=O)Nc4c(C)cccc4Cl)s3)nc(C)n2)CC1 [Ethyl 4-(6-((5-((2-chloro-6-methylphenyl)carbamoyl)thiazol-2-yl)amino)-2-methylpyrimidin-4-yl)-piperazine-1-carboxylate (3b)]
[1]
  IC50: 11.4 nM
[2]
  IC50: 3.15 nM

## Cc1nc(Nc2ncc(C(=O)Nc3c(C)cccc3Cl)s2)cc(C2CCN(C(=O)OCC(C)C)C2)n1 (centres undefined) [Isobutyl 3-(6-((5-((2-chloro-6-methylphenyl)carbamoyl)thiazol-2-yl)amino)-2-methylpyrimidin-4-yl)pyrrolidine-1-carboxylate (5f)]
[1]
  IC50: 85.4 nM
[2]
  IC50: 12.1 nM

## Cc1nc(Nc2ncc(C(=O)Nc3c(C)cccc3Cl)s2)cc(N2CCN(C(=O)OCC(C)C)CC2)n1 [Isobutyl 4-(6-((5-((2-chloro-6-methylphenyl)carbamoyl)thiazol-2-yl)amino)-2-methylpyrimidin-4-yl)-piperazine-1-carboxylate (3f)]
[1]
  IC50: 34.6 nM
[2]
  IC50: 6.75 nM

## Cc1nc(Nc2ncc(C(=O)Nc3c(C)cccc3Cl)s2)cc(C2CCN(C(=O)OC(C)C)C2)n1 (centres undefined) [Isopropyl 3-(6-((5-((2-chloro-6-methylphenyl)carbamoyl)thiazol-2-yl)amino)-2-methylpyrimidin-4-yl)pyrrolidine-1-carboxylate (5c)]
[1]
  IC50: 72.1 nM
[2]
  IC50: 9.14 nM

## Cc1nc(Nc2ncc(C(=O)Nc3c(C)cccc3Cl)s2)cc(N2CCN(C(=O)OC(C)C)CC2)n1 [Isopropyl 4-(6-((5-((2-chloro-6-methylphenyl)carbamoyl)thiazol-2-yl)amino)-2-methylpyrimidin-4-yl)-piperazine-1-carboxylate (3c)]
[1]
  IC50: 14 nM
[2]
  IC50: 5.99 nM

## COC(=O)N1CCC(c2cc(Nc3ncc(C(=O)Nc4c(C)cccc4Cl)s3)nc(C)n2)C1 (centres undefined) [Methyl 3-(6-((5-((2-chloro-6-methylphenyl)carbamoyl)thiazol-2-yl)amino)-2-methylpyrimidin-4-yl)pyrrolidine-1-carboxylate (5a)]
[1]
  IC50: 32.9 nM
[2]
  IC50: 5.23 nM

## COC(=O)N1CCN(c2cc(Nc3ncc(C(=O)Nc4c(C)cccc4Cl)s3)nc(C)n2)CC1 [Methyl 4-(6-((5-((2-chloro-6-methylphenyl)carbamoyl)thiazol-2-yl)amino)-2-methylpyrimidin-4-yl)-piperazine-1-carboxylate (3a)]
[1]
  IC50: 6.76 nM
[2]
  IC50: 4.32 nM

## Cc1nc(Nc2ncc(C(=O)Nc3c(C)cccc3Cl)s2)cc(NC2CCN(S(C)(=O)=O)C2)n1 (centres undefined) [N-(2-chloro-6-methylphenyl)-2-((2-methyl-6-((1-(methylsulfonyl)pyrrolidin-3-yl)amino)-pyrimidin-4-yl)amino)thiazole-5-carboxamide (5i)]
[1]
  IC50: 38.3 nM
[2]
  IC50: 11.7 nM

## CCC(=O)N1CCC(Nc2cc(Nc3ncc(C(=O)Nc4c(C)cccc4Cl)s3)nc(C)n2)C1 (centres undefined) [N-(2-chloro-6-methylphenyl)-2-((2-methyl-6-((1-propionylpyrrolidin-3-yl)amino)pyrimidin-4-yl)amino)thiazole-5-carboxamide (5l)]
[1]
  IC50: 23.9 nM
[2]
  IC50: 17.9 nM

Reference: BindingDB's records for doi:10.1111/cbdd.12863 (Guangzhou Institutes of Biomedicine and Health, Chinese …, 2017)
